For data set [1], the system named is skin. The note with it: humans; topical ATRA, oral 13-cis RA and etretinate; cited from earlier work.
The subject of data set [2] is RARβ. The data set can be described thus: chimeric receptor transactivation assay, RARβ. Format: cell-based. The note with it: unit assumed. The text has this: Assays described below measure the ability of a compound to bind to, and/or activate various retinoid receptor subtypes. When in these assays a compound binds to a given receptor subtype and activates the transcription of a reporter gene through that subtype, then the compound is considered an agonist of that receptor subtype. […] In the below described assays the ability of the compounds to bind to RARα, RARβ, RARγ,RXRα, RXRβ and RXRγ receptors, and the ability or inability of the compounds to activate transcription of a reporter gene through these receptor subtypes can be tested.
The results obtained in this assay are expressed in EC50 numbers, as they are also in the chimeric receptor transactivation assay. The results of ligand binding assay are expressed in Kd numbers.

For data set [3], the target named is T1, RARα (Homo sapiens, UniProt P10276).
T1 sequence (P10276 1-462): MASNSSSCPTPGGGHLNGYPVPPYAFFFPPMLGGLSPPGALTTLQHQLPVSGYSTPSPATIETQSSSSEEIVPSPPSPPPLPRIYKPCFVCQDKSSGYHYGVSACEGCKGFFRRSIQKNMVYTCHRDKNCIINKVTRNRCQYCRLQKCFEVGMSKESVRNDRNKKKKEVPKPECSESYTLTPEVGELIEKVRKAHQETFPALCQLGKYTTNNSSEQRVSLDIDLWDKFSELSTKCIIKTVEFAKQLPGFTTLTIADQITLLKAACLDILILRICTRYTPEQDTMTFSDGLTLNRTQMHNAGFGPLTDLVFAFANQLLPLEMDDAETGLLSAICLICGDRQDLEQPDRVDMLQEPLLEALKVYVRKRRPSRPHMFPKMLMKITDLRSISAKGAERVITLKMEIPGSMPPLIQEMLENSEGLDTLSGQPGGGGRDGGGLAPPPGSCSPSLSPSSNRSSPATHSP
Briefly: ligand binding assay, RARα. To be noted: read-out: Kd RAR α.
Excerpt: Assays described below measure the ability of a compound to bind to, and/or activate various retinoid receptor subtypes. […] In the below described assays the ability of the compounds to bind to RARα, RARβ, RARγ,RXRα, RXRβ and RXRγ receptors, and the ability or inability of the compounds to activate transcription of a reporter gene through these receptor subtypes can be tested.

Data set [4] has as its system skin of hairless mice. The data set can be described thus: topical skin irritation test in hairless mice. Format: in vivo, female hairless mice (Crl:SKH1-hrBR). The note with it: once daily days 1 through 5, mean±SD. The source says: Mice were housed individually throughout the dosing period.
Doses are disclosed as nmol/25 g.
The grading scale used is as follows:
Values can range from 0-9.
Values can range from 0-8.

Data set [5] addresses T2, P450RAI-1 (Homo sapiens, UniProt O43174).
T2 sequence (O43174 1-497): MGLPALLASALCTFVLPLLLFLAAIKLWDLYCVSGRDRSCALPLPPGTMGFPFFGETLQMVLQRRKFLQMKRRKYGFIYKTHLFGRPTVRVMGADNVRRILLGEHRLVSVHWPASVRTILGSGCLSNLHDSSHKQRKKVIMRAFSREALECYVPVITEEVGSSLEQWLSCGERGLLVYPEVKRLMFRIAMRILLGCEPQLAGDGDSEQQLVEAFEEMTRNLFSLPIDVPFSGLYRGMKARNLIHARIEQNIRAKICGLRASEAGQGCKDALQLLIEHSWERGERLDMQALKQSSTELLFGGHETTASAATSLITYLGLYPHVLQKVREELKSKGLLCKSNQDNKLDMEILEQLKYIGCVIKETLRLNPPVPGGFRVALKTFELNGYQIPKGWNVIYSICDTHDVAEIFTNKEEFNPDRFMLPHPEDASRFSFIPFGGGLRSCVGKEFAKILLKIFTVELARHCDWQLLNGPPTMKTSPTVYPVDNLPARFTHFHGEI
The data set can be described thus: cell-based. To be noted: intact HeLa, P450RAI-1 stably transfected, [3H]-RA, 3 hours at 37° C; read-out: P450RAI INHIBITION DATA INTACT HELA IC50. How it is done: FIG. 1 is a schematic representation of the P450RAI cell based assay utilized to evaluate the ability of the compounds of the invention to inhibit the Cytochrome P450RAI enzyme.
P450RAI-1 Cell-Based Inhibitor Assay:
P450RAI-1 stably transfected HeLa cells are maintained in […] tissue culture dishes in Modified Eagle's Medium (MEM) containing 10% Fetal Bovine Serum (FBS) and 100 μg/ml hygromycin. Exponentially growing cells are harvested by incubating in trypsin. Cells are then washed with 1× Phosphate Buffered Saline (PBS) and plated in a 48-well plate at 5×10^5 cells in 0.2 ml MEM medium containing 10% FBS and 0.05 μCi [^3 H]-RA in the presence or absence of increasing concentrations of the test compounds. The compounds are diluted in 100% DMSO and then added in triplicate wells at either 10, 1 or 0.1 μM final concentration. As a positive control for RA metabolism inhibition, cells are also incubated with ketoconazole at 100, 10 and 1 μM. Cell are incubated for 3 hours at 37° C. […] The water soluble radioactivity is quantified using a β-scintillationcounter. IC50 values represent the concentration of inhibitor required to inhibit all-trans-RA metabolism by 50 percent and are derived manually from log-transformed data.

Data set [6] concerns psoriasis. To be noted: treatment with liarozole; cited from earlier work.

Regarding `CC1=C(/C=C/C(C)=C/C=C/C(C)=C\C(=O)O)C(C)(C)CCC1` [13-cis RA], in data set [1], the skin irritation result is given as “substantial skin irritation in humans”.
What is called Kd is the free concentration of one partner at which half of the binding sites on the other are occupied at equilibrium, for simple one-to-one binding. For the compound `CN(C1CC1)C1CCC(C)(C)c2cc(C#Cc3ccc(CC(=O)O)cc3)ccc21` (stereo not drawn) [Compound 8, 4-[(5-(Cyclopropyl-methyl-amino)-8,8-dimethyl-5,6,7,8-tetrahydro-naphthalene-2-yl-ethynyl)-phenyl]-acetic acid], the (EFFICACY) RAR β in data set [2] is 96%. The Kd in data set [3] came to 10 µM. Also, the “Cutaneous Toxicity Score (Blackjack Score)” value in data set [4] (100 nmole) came out at 5 ± 2; in data set [4] (300 nmole), 8 ± 3; in data set [4] (1000 nmole), 12 ± 1.
Broadly, the IC50 is the midpoint of a concentration-inhibition curve. As for `CC(C)N(C)C1CCC(C)(C)c2cc(C#Cc3ccc(C(=O)O)cc3)ccc21` (stereo not drawn) [Compound 26], the IC50 in data set [5] was 10 µM.
The same measure, in the same setting: in the case of `CC1(C)CC(C)(C)c2cc(C#Cc3ccc(CC(=O)O)c(F)c3)ccc2O1` [Compound 32, [2-Fluoro-4-(2,2,4,4-tetramethyl-chroman-6-yl-ethynyl)phenyl]acetic acid] it was 0.13 µM.
On to `CC1(C)CC(C)(C)c2cc(C#Cc3ccc(CC(=O)O)c(F)c3)cc(C3CC3)c2O1` [Compound 38, [4-(8-Cyclopropyl-2,2,4,4-tetramethyl-chroman-6-yl-ethynyl)-2-fluorophenyl]acetic acid], for which the Kd in data set [3] is 10 µM. Besides, the “Cutaneous Toxicity Score (Blackjack Score)” value in data set [4] (100 nmole) turned out to be 1 ± 1; in data set [4] (1000 nmole), 10 ± 1.
For the compound `Cc1cc(C#Cc2ccc(CC(=O)O)cc2)ccc1Cn1ccnc1` [Compound 121, [4-(4-Imidazol-1-yl-methyl-3-methyl-phenylethynyl)-phenyl]-acetic acid], in data set [5], the IC50 is 0.18 µM.
Turning to `CC1=C(/C=C/C(C)=C/C=C/C(C)=C/C(=O)O)C(C)(C)CCC1` [all-trans-retinoic acid], in data set [1], the skin irritation result is reported as “substantial skin irritation in humans”.
As for `CCOC(=O)/C=C(C)/C=C/C=C(C)/C=C/c1c(C)cc(OC)c(C)c1C` [etretinate], in data set [1], the skin irritation result was “substantial skin irritation in humans”.
For `Clc1cccc(C(c2ccc3[nH]cnc3c2)n2ccnc2)c1` (stereo not drawn) [liarozole], the “retinoid-like effects, amelioration of psoriasis” value in data set [6] was “effects similar to treatment by retinoids, for example amelioration of psoriasis”.
